Test results reported in publication PMC3797749, “Functional Characterisation of the Maturation of the Blood-Brain Barrier in Larval Zebrafish” (PLoS ONE, 2013).

Legend:
zebrafish larvae [1] = assay: in vivo; details: for Absorption (whole body) (% uptake): 15 µg/ml (5 µg/ml scopolamine) immersion 1 hour, tissue vs medium concentration; for drug level (LC/MS/MS): 5 µg/ml 1 hour
Procedure: (§1) Initial drug exposure assays were performed in larval zebrafish to identify a sufficiently high concentration of drug that could be detected by liquid chromatography/tandem mass spectrometry (LC/MS/MS) analysis without causing toxicity. Maximum tolerated concentration (MTC) was determined using n=6 larvae per group. […] Compounds of interest were prepared as 2 mg/ml stocks in dimethyl sulfoxide (DMSO). […] Larvae were incubated in the drug for 1 hour at room temperature then anaesthetised on ice. For whole uptake analysis, anaesthetised larvae were transferred to 1.5 ml microfuge tubes and all excess liquid was removed. 100 µl ice cold PBS was added, samples were briefly centrifuged and all excess liquid was removed. For brain versus body uptake analysis, larvae were anaesthetised by chilling prior to decapitation using fine iridectomy scissors and No. 5 watchmaker forceps. Head and body tissue samples were collected in separate microfuge tubes on ice and excess liquid removed. 100 µl ice cold PBS was added and samples were briefly centrifuged and all excess liquid removed. The weight of the tissue sample was measured and the samples were frozen at -20 °C prior to extraction for LC/MS/MS.
(§2) Test compound was added to the well containing 50 µg/ml verapamil and larvae were incubated for a further hour at room temperature prior to tissue collection as described. For subsequent LC/MS/MS analysis, tissue samples were thawed and after addition of an internal standard (clozapine) extracted into an organic solvent (tertiary-butyl methyl ether, t-bme). […] The analytes and internal standard were ionised under atmospheric pressure chemical ionisation (APCI) conditions operating in positive ion mode. Detection was via tandem mass spectrometry (MS/MS) using selected ion monitoring (SIM). All analyses were performed using a Finnigan LCQ quadrupole ion trap mass spectrometer.
(§3) A panel of 5 drugs known to either cross or not cross the BBB in mammals were selected to test in zebrafish larvae. Larvae of different ages were exposed to these compounds at non-toxic concentrations for 1 hour prior to collection of head and trunk tissue for analysis of drug concentration. A generic extraction method was developed and LC/MS/MS was performed to analyse the concentration of drug in head and trunk tissue in larvae of different ages. Drug/tissue concentrations were normalised against a standard and the relative amount of drug in head and trunk samples was compared to determine whether the drug distribution altered with larval age (Table 2).

in vivo = details: zebrafish, in vivo, immersion 1 hour
Procedure: as §1, §2, §3

zebrafish larvae [2] = assay: Dye exclusion experiments (pericardial injection, brain fluorescence quantification); type: in vivo
Procedure: Stocks of 2% Evans blue (961 Da) and 10% sodium fluorescein (376 Da) in 0.9% saline were prepared and stored at 4 °C. Larvae were anaesthetised by immersion in 0.2 mg/ml 3-amino benzoic acid (MS222) prior to being immobilised and positioned laterally in 3% methyl cellulose in embryo medium such that the heart was accessible. Larvae and juveniles from 2 days post-fertilisation (d.p.f.) to 30 d.p.f. were injected with 0.5 to 2 nl (depending on age) of dye or saline control into the pericardial region, using a standard zebrafish microinjection apparatus. Fish were transferred to fresh embryo medium to recover from anaesthesia, then viewed using a fluorescence dissecting microscope at 1 hour intervals to determine the time of uptake of the dye into the circulation and the time at which dye had permeated from the circulation into non-vascular body tissue. Representative images of dye distribution in vivo were taken on a Zeiss AxioZoom V16 microscope with Apotome. Dye and saline injected larvae were anaesthetised at 4 or 6 hours after injection and fixed in 4% paraformaldehyde in PBS. Ten larvae per age group and injection treatment were embedded in Sakura Tissue-Tek OCT (Bayer, Newbury, UK) and frozen parasagittal sections were cut at 10 µm thickness.
Sections were visualised without mounting medium by fluorescence microscopy on an Olympus BX51 microscope. Three midline sagittal sections from each larva were identified and images were captured using a ColorView camera (Olympus) and AnalySis software (Soft Imaging System). The fluorescence intensity within the brain was quantified for each midline section of each larva in each treatment group using colour threshold and area measurements in AnalySis. Mean values, standard deviations and Student’s t-tests were calculated using Excel software (Microsoft Office).
Rhodamine 123 (R123) was dissolved in 10% ethanol/0.9% saline to make a 0.5 mg/ml stock. […] Quantification of fluorescence in the brain was performed as described above.

[3] = known from mammals, no reference given; cited from earlier work
Abcb1/4/5 = assay: Rhodamine 123 dye exclusion in the presence of verapamil; type: in vivo, zebrafish; details: 8 d.p.f. and 10 d.p.f.; verapamil 50 µg/ml; 3 hours after injection
Procedure: Dye exclusion experiments on larvae at 3, 5, 8 and 10 d.p.f. were performed as described above using 0.2 nl R123. Some larvae were exposed to verapamil at 50 µg/ml for 2 hours prior to and during intrapericardial injection of R123 and for 3 hours after injection. At 3 hours after injection, larvae were anaesthetised and fixed in 4% PFA prior to processing for frozen sections. Quantification of fluorescence in the brain was performed as described above.

[4] = ref ChemIDplus; cited from earlier work
[5] = 15 µg/ml, Head concentration, 5 d.p.f.
[6] = 15 µg/ml, Head concentration, 8 d.p.f.
[7] = 15 µg/ml, Trunk concentration, 5 d.p.f.
[8] = 15 µg/ml, Trunk concentration, 8 d.p.f.
[9] = pericardial injection, brain fluorescence on frozen sections vs saline

## Clc1ccc2c(c1)CCc1cccnc1C2=C1CCNCC1 [Desloratadine]
Zebrafish larvae [1]; 5 d.p.f.
  Absorption (whole body) (% uptake): 14.8%
Zebrafish larvae [1]; 10 d.p.f.
  Absorption (whole body) (% uptake): 28.5%

## CN(C)CCOC(c1ccccc1)c1ccccc1 [Diphenhydramine]
In vivo; [5]
  concentration at 1 h: 21600 ng/g
In vivo; [6]
  concentration at 1 h: 31200 ng/g
In vivo; [7]
  concentration at 1 h: 21100 ng/g
In vivo; [8]
  concentration at 1 h: 24000 ng/g
In vivo; Head concentration, 10 d.p.f.
  concentration at 1 h: 52800 ng/g
In vivo; Trunk concentration, 10 d.p.f.
  concentration at 1 h: 54800 ng/g

## Cc1cc(-c2ccc(/N=N/c3ccc4c(S(=O)(=O)O)cc(S(=O)(=O)O)c(N)c4c3O)c(C)c2)ccc1/N=N/c1ccc2c(S(=O)(=O)O)cc(S(=O)(=O)O)c(N)c2c1O [Evans blue]
Zebrafish larvae [2]; zebrafish, in vivo, 3 h
  larval age at which the injected dye is excluded from the brain: 5 d.p.f.

## O=C(CCCN1CCC(O)(c2ccc(Cl)cc2)CC1)c1ccc(F)cc1 [Haloperidol]
In vivo; [5]
  concentration at 1 h: 116000 ng/g
In vivo; [6]
  concentration at 1 h: 136000 ng/g
In vivo; [7]
  concentration at 1 h: 104000 ng/g
In vivo; [8]
  concentration at 1 h: 149000 ng/g
In vivo; Head concentration, 10 d.p.f.
  concentration at 1 h: 113000 ng/g
In vivo; Trunk concentration, 10 d.p.f.
  concentration at 1 h: 101000 ng/g
Zebrafish larvae [1]; 1 hour exposure, lowest and highest value over drugs and ages
  amount of drug absorbed, larval tissue as % of the medium concentration: 949%
Zebrafish larvae [1]; 5 d.p.f.
  Absorption (whole body) (% uptake): 732.6%
Zebrafish larvae [1]; 8 d.p.f.
  Absorption (whole body) (% uptake): 949.5%
Zebrafish larvae [1]; 10 d.p.f.
  Absorption (whole body) (% uptake): 713.5%
[3]
  BBB penetration in mammals: (penetrant)

## COC(=O)c1ccccc1-c1c2ccc(=N)cc-2oc2cc(N)ccc12 [Rhodamine 123]
Zebrafish larvae [2]; [9]
  larval age at which the injected dye is excluded from the brain: 8 d.p.f.
Abcb1/4/5
  exclusion of R123 from the brain in the presence of verapamil: failed to be excluded

## CN1[C@@H]2C[C@@H](OC(=O)[C@H](CO)c3ccccc3)C[C@H]1[C@@H]1O[C@@H]12 [Scopolamine]
Zebrafish larvae [1]; 5 d.p.f.
  drug level (LC/MS/MS): below the detection limits
Zebrafish larvae [1]; 8 d.p.f.
  drug level (LC/MS/MS): below the detection limits
Zebrafish larvae [1]; 10 d.p.f., immersion 1 hour
  Head concentration: .65 µg/g
  Trunk concentration: .63 µg/g

## O=C([O-])c1ccccc1-c1c2ccc(=O)cc-2oc2cc([O-])ccc12.[Na+].[Na+] [Sodium fluorescein, sodium fluorescein]
Zebrafish larvae [2]; [9]
  larval age at which the injected dye is excluded from the brain: 10 d.p.f.

## Scopolamine N-butyl bromide
[4]
  LogP: -1.11
